Assay results taken from patent US20200345733A1, “Microbicidal Pyrimidine or Triazine Containing Compounds” (Janssen Sciences Ireland UC, priority 2002, published 2020).
pEC50: −log10 of the molar value.

What was measured:
[1] = tested on: Neisseria gonorrhoea strains; assay: In vitro antibacterial activity, Neisseria gonorrhoea; assay type: cell-based; conditions: some strains
Description: Compatibility with lactobacilli and normal vaginal flora is an important requirement for a vaginal microbicide. Activity on pathogens of sexual transmitted diseases is an additional advantage. In in vitro tests for antibacterial activity of compound B, the following susceptibilities were found: • 33 different Lactobacillus species isolated from recto-vaginal cultures of pregnant women were studied.

HIV-1 (SF162 and 1/BX08) = assay: hu-SCID animal model of vaginal transmission of HIV; assay type: in vivo; conditions: single intravaginal 25 μl gel (carbopol 940 or HEC; 0.225, 0.0225 or 0.00225 mM) 15-20 minutes before challenge
Protocol: In order to mimic the in vivo transmission that occurs in humans, a hu-SCID animal model of vaginal transmission of HIV for the evaluation of vaginal microbicides was used (Di Fabio et al., AIDS 2001, 15, 2231-2234 Gels made up of carbopol 940 or hydroxyethyl cellulose (HEC), two water soluble polymers, were prepared containing Compound B in different concentrations (0.225 mM; 0.0225 mM or 0.00225 mM). Animals received a single intravaginal application of 25 μl of gel containing Compound B, 15-20 minutes prior to a non invasive vaginal challenge with 2×10^6 human peripheral blood lymphocytes PBL, (hu-PBL) previously infected in vitro with non-syncitium (NSI) strains of HIV-1 (SF162 and 1/BX08). Cell to cell transmission was assessed by p24 production and by quantitative PCR.

[2] = tested on: HTLV-IIIb infected CEM T cells; assay: Antiviral activity in HTLV-IIIB infected CEM T cells (syncytium formation); assay type: cell-based, HIV; conditions: Human immunodeficiency virus 1, T-cell, continuous treatment, 50% inhibition of syncytium formation in CEM T cells
Protocol: For experiments with CEM T cells, we used the lymphotropic SI/X4 HIV strain HTLV-IIIB, originally obtained from R. C. Gallo and M. Popovic (NIH, Bethesda, Md.). For experiments with monocyte-derived dendritic cells (MO-DC), the monotropic NSI/R5 HIV strain Ba-L, kindly provided by the NIH AIDS Research and Reference Reagent Program (Rockville, Md) was used. Ba-L stocks were grown and tittered on PHA/IL-2-stimulated peripheral blood mononuclear cells (PBMC) in complete medium, containing RPMI-1640 (Bio-Whittaker, Verviers, Belgium) and 10% bovine calf serum (Hyclone, Utah, US) (Peden K. Virological and Molecular Genetic Techniques for Studies of Established HIV Isolates. 1995, 21-45). The supernatant of these cultures were directly used as cell-free virus to infect MO-DC. To prepare cell-associated HIV Ba-L, non-stimulated PBMC (2×10^6 cells/ml) were incubated overnight with 10^−2 MOI (=multiplicity of infection) of HIV Ba-L in complete medium. Afterwards, cells were extensively washed, frozen in liquid nitrogen and thawed on the day of infection.
As a reference system, CEM T cells (obtained from the American Type culture Collection in Rockville, Md.) were used under previously standardized conditions (Balzarini J, et al. AIDS Res Hum Retroviruses 10 Apr. 2000, 16: 517-528). […]

HIV-1 RF = assay: Direct antiviral activity, immobilised virus with Jurkat-tat indicator cells; assay type: cell-based
[3] = Cytotoxicity in CEM T cells; assay type: cell-based; conditions: human; viability of CEM T cells decreased by 50%
Protocol: As a reference system, CEM T cells (obtained from the American Type culture Collection in Rockville, Md.) were used under previously standardized conditions (Balzarini J, et al. AIDS Res Hum Retroviruses 10 Apr. 2000, 16: 517-528). Briefly, cells were suspended at 250,000 cells/ml in RPMI-1640, supplemented with 10% fetal calf serum, 2 mM L-glutamine and 0.075% NaHCO3 and infected with HTLV-IIIB at ˜20 TCID50. 100 μl of a 5-fold dilution series of the drugs were immediately added to 100 μl of the infected cells in 200-μl well plates. After 4 to 5 days of incubation at 37° C., the cultures were examined for syncytium formation. The EC50 is the concentration required to inhibit syncytium formation by 50%. Cytotoxicity was evaluated and given as CC50 values, which is the concentration at which the viability of the CEM cells is decreased by 50%.

Cc1cc(C)c(Nc2ccnc(Nc3ccc(C#N)cc3)n2)c(C)c1 [compound B, 4-[[4-[(2,4,6-trimethylphenyl)amino]-2-pyrimidinyl]amino]benzonitrile]
Inhibition of Neisseria gonorrhoea strains [1]: inhibited at clinical relevant concentrations
Systemic infection after vaginal challenge with HIV-1 infected hu-PBL (p24, quantitative PCR) (HIV-1 (SF162 and 1/BX08)): systemic infection was successfully inhibited
pEC50 [2]: 9.00
Concentration providing protection of infection (HIV-1 RF; virus pretreated prior to addition of cells, without removal of the compound): 10 nM
Concentration providing protection of infection (HIV-1 RF; virus treated 1 hour at 37° C., compound removed by washing, co-culture 8 days): 100 nM
CC50 [3]: 1370 nM
